{
  "source": "patent US8846653B2",
  "about": "“Delta-tocotrienol treatment and prevention of pancreatic cancer” (University of South Florida, priority 2006, dated 2014)",
  "key": {"HPDE 6C7 cells": {"test_system": "HPDE 6C7 cells", "experiment": "Proliferation by MTT, increasing concentrations of δ-tocotrienol", "format": "cell-based, human", "conditions": "HPDE 6C7, 24 hours, even at the highest concentrations", "protocol": "MIA PaCa2, SW1990, BXPC3, and HPDE 6C7 cells (3×10^3) were cultured as described in the Examples above, in 96-well plates and treated the following day with increasing concentrations of δ-tocotrienol."}, "BxPc-3 cells": {"test_system": "BxPc-3 cells", "experiment": "Annexin V-FITC staining, flow cytometry for apoptosis", "format": "cell-based, human", "conditions": "BxPc-3, varying concentrations, 24 hours", "protocol": "FIG. 4 is a graph wherein BXPC3 pancreatic cancer cells were treated with in varying concentrations of δ-tocotrienol or vehicle for 24 hours. Cells were collected and stained with Annexin V-FITC and analyzed by flow cytometry for apoptosis.\nMiaPaCa2 and HPDE 6C7 cells were cultured, as discussed above, and treated with δ-tocotrienol or vehicle. […] MiaPaCa-2, BxPc-3, and SW1990 pancreatic cancer cells were treated with in varying concentrations of δ-tocotrienol or vehicle for 24 hours. The cells were then harvested for annexin V-FITC staining and analyzed by flow cytometry."}, "[1]": {"test_system": "pancreatic cancer metastasis", "experiment": "Pancreatic cancer metastasis in vivo (luminescence)", "set-up": "species or system mouse", "description": "Images show comparison of vehicle vs. 100 MPK\nThe apoptotic effect of delta-tocotrienol was selective for neoplastic cells as normal pancreatic cells and in vitro immortalized human pancreatic ductal epithelial cells were not sensitive to delta-tocotrienol."}},
  "data": [
    {"smiles": "CC(C)=CCC/C(C)=C/CC/C(C)=C/CC[C@]1(C)CCc2cc(O)cc(C)c2O1", "note": "[T3 delta, delta tocotrienol]", "values": [
      {"measurement": "antiproliferative effect", "setting": "HPDE 6C7 cells", "value": "relatively resistant"},
      {"measurement": "induction of apoptosis (annexin V-FITC)", "setting": "BxPc-3 cells", "value": "dose dependent induction of apoptosis"},
      {"measurement": "tumor response at the highest dose", "setting": "[1]; highest dose, compared to vehicle/PBS", "value": "tumor regression"},
      {"measurement": "pancreatic cancer metastasis", "setting": "[1]; in vivo, vs vehicle/PBS", "value": "inhibits pancreatic cancer metastasis"}
    ]}
  ]
}
